One may read the EC50 as the concentration needed to bring the measured effect to its halfway point.

Data on 34 molecules can be found in US20090054392A1, “NAPHTHYLPYRIMIDINE, NAPHTHYLPYRAZINE AND NAPHTHYLPYRIDAZINE ANALOGS AND THEIR USE AS AGONISTS OF THE WNT-BETA-CATENIN CELLULAR MESSAGING SYSTEM” (Wyeth, priority 2007, published 2009).

The test system of the data set is Dkk1-LRP5-TCF-Luciferase. Put plainly: Functional Dkk1-LRP5-TCF-Luciferase Assay in U2OS Cells. To be noted: for fold induction at 2 µM / fold induction at 20 µM / EC50: Homo sapiens, U2OS; for fold induction at 2 µM: read-out: B = TCF ACTIVITY/DMSO CONTROL Fold induction @ 2.0 uM, 2.0 uM compound; for fold induction at 20 µM: read-out: C = TCF ACTIVITY/DMSO CONTROL Fold induction @ 20.0 uM, 20.0 uM compound; for A = MAX FOLD Induction/DMSO CONTROL: maximum fold induction over DMSO control.

SMILES strings stand for the structures.

Protocol: Biological Evaluation—Functional Dkk1-LRP5-TCF-Luciferase Assay in U2OS Cells
Frozen U2OS-Dkk1-HTS Reporter cells generation: U2OS Human Bone derived cells (Osteosarcoma) are grown in McCoy's 5A Medium (Modified), with L -glutamine (GIBCO Cat No. 16600-082)+1% Pen-Strep+5% FBS) plated at 1×10^7 cells/T175 cm flask. The next day, the cells are co-transfected overnight with the following plasmids: (a) Test reporter (16×TCF-TK-FireFly-Luci), (b) Internal Control Reporter (TK-Renilla-Luci), (c) Wnt3a and (d) Dkk1. GIBCO's Lipofectamine 2000 and OptiMEM are used for the transfection. After a minimum of 4 hr of transfection at 37° C., the plasmid-transfected cells are trypsinized, counted, and suspended in freezing medium (95% FBS+5% DMSO). The reporter cells are frozen at 1×10^7/ml concentrations, aliquoted into 0.5 ml or 2.5 ml/tube and stored at 70° C.
The following day, test compounds are added under HTS setup by Plate Track into 384 well plates (white, TC treated, Falcon plate) such that the final concentration of the compounds in 20 μL/well cell will be 5 μg/ml (final concentration of DMSO=0.25% and final compound concentration=20 μM). Vials of frozen reporter cells are thawed by warming the vial in a 37° C. water bath for 60-120 seconds with some shaking until the cells formed a suspension. The thawed cells are transferred into a cold 50 ml (or larger) tube and mixed well by gentle pipetting. The appropriate amount of cold Phenol Red Free RPMI medium-1640 (GIBCO, Cat #11835-030) with L-glutamine is added, both with ˜5% FBS (GIBCO-BRL, Cat. #16000-044), so that 20 μl of the final cell suspension will contain ˜5,000 cells. The cell dilution is done such that the final concentration of FBS is ˜5%.
Diluted cells (20 μl) are added into each well in a 384 well plate. The plate is incubated at 37° C. under 5% CO2 for ˜20 h. Bright-Glo substrate, 2.5 μl/well is added, and the Fire Fly Luciferase is measured using VLUX (60 second exposure) immediately after the substrate is added. Test compounds are dissolved in DMSO (100%) and added to specified wells. Raw luciferase signal data obtained as relative luminescence units (RLUs) for the test compounds are normalized to the signal of the mean of the sample reporter cell plate with DMSO.

Consider `CNC[C@H]1CCN(c2nccc(-c3ccc4ccccc4c3)n2)C1` [N-methyl-1-{(3R)-1-[4-(2-naphthyl)pyrimidin-2-yl]pyrrolidin-3-yl}methanamine], for which the fold induction at 2 µM was 2.76, the fold induction at 20 µM came out at 0.01 and the “A = MAX FOLD Induction/DMSO CONTROL” value came to 1.030 fold.
On to `CNC[C@@H]1CCN(c2nccc(-c3ccc4ccccc4c3)n2)C1` [N-methyl-1-{(3S)-1-[4-(2-naphthyl)pyrimidin-2-yl]pyrrolidin-3-yl}methanamine], for which a half-maximal effect (EC50) was put at 2.35 µM, the fold induction at 2 µM was 2.74, the fold induction at 20 µM amounted to 0.503 and the “A = MAX FOLD Induction/DMSO CONTROL” value came out at 4.773 fold.
Turning to `CCCN1CCC(N(C)c2nccc(-c3ccc4ccccc4c3)n2)CC1` [N-methyl-4-(2-naphthyl)-N-(1-propylpiperidin-4-yl)pyrimidin-2-amine], the fold induction at 2 µM is 1.74.
On the same count and under the same terms, the result for `CN(c1nccc(-c2ccc3ccccc3c2)n1)C1CCN(c2ncccn2)CC1` [N-methyl-4-(2-naphthyl)-N-(1-pyrimidin-2-ylpiperidin-4-yl)pyrimidin-2-amine] reads 1.7.
The same measure, in the same setting: the result for `CN(c1nccc(-c2ccc3ccccc3c2)n1)C1CCN(C(=O)N2CCCC2)CC1` [N-methyl-4-(2-naphthyl)-N-[1-(pyrrolidin-1-ylcarbonyl)piperidin-4-yl]pyrimidin-2-amine] reads 1.81.
As to `CN(c1nccc(-c2ccc3ccccc3c2)n1)C1CCN(C(=O)C(F)(F)F)CC1` [N-methyl-4-(2-naphthyl)-N-[1-(trifluoroacetyl)piperidin-4-yl]pyrimidin-2-amine], the fold induction at 2 µM amounted to 1.03 and the fold induction at 20 µM was found to be 1.06.
As to `CN(c1nccc(-c2ccc3ccccc3c2)n1)C1CCNCC1` [N-methyl-4-(2-naphthyl)-N-piperidin-4-ylpyrimidin-2-amine], the EC50 is 1.8 µM, the fold induction at 2 µM came to 2.65, the fold induction at 20 µM was determined as 1.35 and the “A = MAX FOLD Induction/DMSO CONTROL” value was 2.320 fold.
With `CN(c1nccc(-c2ccc3ccccc3c2)n1)C1CCN(CCOC(c2ccccc2)(c2ccccc2)c2ccccc2)CC1` [N-methyl-4-(2-naphthyl)-N-{1-[2-(trityloxy)ethyl]piperidin-4-yl}pyrimidin-2-amine], the fold induction at 2 µM was 1.14 and the fold induction at 20 µM was found to be 1.02.
Regarding `CNc1nccc(-c2ccc3ccccc3c2)n1` [N-methyl-4-(2-naphthyl)pyrimidin-2-amine], the fold induction at 2 µM was determined as 1.34.
As to `CN(CC1CCN(c2nccc(-c3ccc4ccccc4c3)n2)CC1)C1CCCCC1` [N-methyl-N-({1-[4-(2-naphthyl)pyrimidin-2-yl]piperidin-4-yl}methyl)cyclohexanamine], the fold induction at 2 µM was 2.87, the fold induction at 20 µM worked out at 0.03 and the “A = MAX FOLD Induction/DMSO CONTROL” value is 2.160 fold.
Regarding `CN(C[C@H]1CCN(c2nccc(-c3ccc4ccccc4c3)n2)C1)C1CCCCC1` [N-methyl-N-({(3R)-1-[4-(2-naphthyl)pyrimidin-2-yl]pyrrolidin-3-yl}methyl)cyclohexanamine], the fold induction at 2 µM was 1.27 and the fold induction at 20 µM is 1.6.
For `CN(C[C@@H]1CCN(c2nccc(-c3ccc4ccccc4c3)n2)C1)C1CCCCC1` [N-methyl-N-({(3S)-1-[4-(2-naphthyl)pyrimidin-2-yl]pyrrolidin-3-yl}methyl)cyclohexanamine], the fold induction at 2 µM was 1.37, the fold induction at 20 µM stood at 2.27 and the “A = MAX FOLD Induction/DMSO CONTROL” value came out at 3.720 fold.
Regarding `CN(c1nccc(-c2ccc3ccccc3c2)n1)C1CCN(S(C)(=O)=O)CC1` [N-methyl-N-[1-(methylsulfonyl)piperidin-4-yl]-4-(2-naphthyl)pyrimidin-2-amine], the fold induction at 2 µM is 1.24 and the fold induction at 20 µM is 0.77.
`CC(=O)N(C)CCN(C)[C@@H]1CCN(c2nccc(-c3ccc4ccccc4c3)n2)C1` [N-methyl-N-[2-(methyl{(3R)-1-[4-(2-naphthyl)pyrimidin-2-yl]pyrrolidin-3-yl}amino)ethyl]acetamide]: the fold induction at 20 µM was 4.4.
As to `CN(CCN(C)[C@@H]1CCN(c2nccc(-c3ccc4ccccc4c3)n2)C1)C(=O)c1ccccc1` [N-methyl-N-[2-(methyl{(3R)-1-[4-(2-naphthyl)pyrimidin-2-yl]pyrrolidin-3-yl}amino)ethyl]benzamide], the fold induction at 2 µM stood at 1.3.
`CN(CCN(C)S(=O)(=O)c1ccccc1)[C@@H]1CCN(c2nccc(-c3ccc4ccccc4c3)n2)C1` [N-methyl-N-[2-(methyl{(3R)-1-[4-(2-naphthyl)pyrimidin-2-yl]pyrrolidin-3-yl}amino)ethyl]benzenesulfonamide]: the fold induction at 20 µM came to 1.4.
Same read-out and setting: the result for `CCS(=O)(=O)N(C)CCN(C)[C@@H]1CCN(c2nccc(-c3ccc4ccccc4c3)n2)C1` [N-methyl-N-[2-(methyl{(3R)-1-[4-(2-naphthyl)pyrimidin-2-yl]pyrrolidin-3-yl}amino)ethyl]ethanesulfonamide] reads 1.3.
On the same count and under the same terms, the result for `CN(CCN(C)S(C)(=O)=O)[C@@H]1CCN(c2nccc(-c3ccc4ccccc4c3)n2)C1` [N-methyl-N-[2-(methyl{(3R)-1-[4-(2-naphthyl)pyrimidin-2-yl]pyrrolidin-3-yl}amino)ethyl]methanesulfonamide] reads 1.9; that for `CCC(=O)N(C)CCN(C)[C@@H]1CCN(c2nccc(-c3ccc4ccccc4c3)n2)C1` [N-methyl-N-[2-(methyl{(3R)-1-[4-(2-naphthyl)pyrimidin-2-yl]pyrrolidin-3-yl}amino)ethyl]propanamide], 2.5.
Consider `Cc1ccc(S(=O)(=O)N2CCC(N(C)c3nccc(-c4ccc5ccccc5c4)n3)CC2)cc1` [N-methyl-N-{1-[(4-methylphenyl)sulfonyl]piperidin-4-yl}-4-(2-naphthyl)pyrimidin-2-amine], for which the fold induction at 2 µM was 1.65.
In the case of `CC(=O)N(C)[C@@H]1CCN(c2nccc(-c3ccc4ccccc4c3)n2)C1` [N-methyl-N-{(3R)-1-[4-(2-naphthyl)pyrimidin-2-yl]pyrrolidin-3-yl}acetamide], the EC50 amounted to 10 µM, the fold induction at 2 µM came to 1.55, the fold induction at 20 µM worked out at 2.71 and the “A = MAX FOLD Induction/DMSO CONTROL” value is recorded as 2.285 fold.
Taken in the same sequence, the figures for `CC(=O)N(C)[C@H]1CCN(c2nccc(-c3ccc4ccccc4c3)n2)C1` [N-methyl-N-{(3S)-1-[4-(2-naphthyl)pyrimidin-2-yl]pyrrolidin-3-yl}acetamide] were 2.15 µM, 2.38, 2.89 and 2.533 fold.
`CC(C)(C)NC(=O)[C@H]1CCCN1c1nccc(-c2ccc3ccccc3c2)n1` [N-tert-butyl-1-[4-(2-naphthyl)pyrimidin-2-yl]-D-prolinamide]: the fold induction at 2 µM turned out to be 1.16 and the fold induction at 20 µM was determined as 0.6.
Take `CC(C)(C)NC(=O)[C@@H]1CCCN1c1nccc(-c2ccc3ccccc3c2)n1` [N-tert-butyl-1-[4-(2-naphthyl)pyrimidin-2-yl]-L-prolinamide]: the fold induction at 2 µM was 1.94.
Take `CC(=O)NC1CCCN(c2nccc(-c3ccc4ccccc4c3)n2)CC1` (stereo not shown) [N-{1-[4-(2-naphthyl)pyrimidin-2-yl]azepan-4-yl}acetamide]: the fold induction at 2 µM turned out to be 1.26, the fold induction at 20 µM was 2.91 and the “A = MAX FOLD Induction/DMSO CONTROL” value is reported as 1.350 fold.
With `O=C(NC1CCCN(c2nccc(-c3ccc4ccccc4c3)n2)CC1)c1ccccc1` (stereo not shown) [N-{1-[4-(2-naphthyl)pyrimidin-2-yl]azepan-4-yl}benzamide], the fold induction at 2 µM is 1.23 and the fold induction at 20 µM is 1.07.
Turning to `CS(=O)(=O)NC1CCCN(c2nccc(-c3ccc4ccccc4c3)n2)CC1` (stereo not shown) [N-{1-[4-(2-naphthyl)pyrimidin-2-yl]azepan-4-yl}methanesulfonamide], the fold induction at 2 µM was determined as 2.04, the fold induction at 20 µM was 2.21 and the “A = MAX FOLD Induction/DMSO CONTROL” value is 1.120 fold.
On to `NC(=O)NC1CCCN(c2nccc(-c3ccc4ccccc4c3)n2)CC1` (stereo not shown) [N-{1-[4-(2-naphthyl)pyrimidin-2-yl]azepan-4-yl}urea], for which a half-maximal effect (EC50) was put at 20.4 µM, the fold induction at 2 µM came to 1.62, the fold induction at 20 µM worked out at 2.89 and the “A = MAX FOLD Induction/DMSO CONTROL” value worked out at 1.500 fold.
Consider `CC(=O)N[C@@H]1CCN(c2nccc(-c3ccc4ccccc4c3)n2)C1` [N-{(3R)-1-[4-(2-naphthyl)pyrimidin-2-yl]pyrrolidin-3-yl}acetamide], for which the fold induction at 2 µM was 1.62, the fold induction at 20 µM came to 0.2 and the “A = MAX FOLD Induction/DMSO CONTROL” value came to 1.610 fold.
For `N=C(N)N[C@@H]1CCN(c2nccc(-c3ccc4ccccc4c3)n2)C1` [N-{(3R)-1-[4-(2-naphthyl)pyrimidin-2-yl]pyrrolidin-3-yl}guanidine], the fold induction at 2 µM came to 1.63 and the fold induction at 20 µM amounted to 0.65.
Taken in the same sequence, the figures for `CS(=O)(=O)N[C@@H]1CCN(c2nccc(-c3ccc4ccccc4c3)n2)C1` [N-{(3R)-1-[4-(2-naphthyl)pyrimidin-2-yl]pyrrolidin-3-yl}methanesulfonamide] were 1.26 and 0.82.
As for `O=C(N[C@@H]1CCN(c2nccc(-c3ccc4ccccc4c3)n2)C1)N1CCOCC1` [N-{(3R)-1-[4-(2-naphthyl)pyrimidin-2-yl]pyrrolidin-3-yl}morpholine-4-carboxamide], the fold induction at 2 µM was found to be 1.91.
As for `O=C(N[C@@H]1CCN(c2nccc(-c3ccc4ccccc4c3)n2)C1)N1CCCC1` [N-{(3R)-1-[4-(2-naphthyl)pyrimidin-2-yl]pyrrolidin-3-yl}pyrrolidine-1-carboxamide], the fold induction at 2 µM turned out to be 1.41 and the fold induction at 20 µM is 0.27.
For the molecule `NC(=O)N[C@@H]1CCN(c2nccc(-c3ccc4ccccc4c3)n2)C1` [N-{(3R)-1-[4-(2-naphthyl)pyrimidin-2-yl]pyrrolidin-3-yl}urea], the concentration giving a half-maximal response (EC50) stood at 4.3 µM, the fold induction at 2 µM was found to be 2.09, the fold induction at 20 µM stood at 1.63 and the “A = MAX FOLD Induction/DMSO CONTROL” value is given as 1.550 fold.
